This is an account of results in patent US12240844B2 (Voronoi, Inc., priority 2019, dated 2025).

One may read the IC50 as the concentration that inhibits the measured activity by half.

SMILES strings stand for the structures.

Holding throughout (assay type): biochemical
In one assay the target is LRRK2 (G2019S) (Homo sapiens, UniProt Q5S007, G2019S). As to the kind of experiment: LRRK2 G2019S enzyme inhibition, ADP-Glo kinase assay. More on the design: purchased SignalChem L10-12GG. Put shortly:
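Purified human LRRK2 G2019S (16 ng) with 25 μM ATP and 0.2 μg substrate, 2 h at 25° C in 40 mM Tris-HCl pH 7.4, 20 mM MgCl2, 0.5 mg/ml BSA, 50 μM DTT; compound at 12 final concentrations from 50 μM downward. ADP-Glo luminescence versus solvent control gave IC50 (nM).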
For orientation: ADP-Glo first removes unused ATP, then detects ADP through luciferase.

The target of assay [1] is T1, human GST-DYRK1A (full length) (Homo sapiens, UniProt Q13627).
T1 construct: purified human GST-DYRK1A (full length, Thermo scientifics) enzyme; GST; purchased Thermo scientifics
Briefly: GST-DYRK1A enzyme inhibition, ADP-Glo kinase assay. The following applies: read-out: DYRK1 IC50. Put shortly: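 Full-length human GST-DYRK1A (10 ng) incubated with 10 uM ATP and specific substrate for 1 h at 25° C in 40 mM Tris-HCl pH 7.4, 20 mM MgCl2, 0.5 mg/mL BSA, 50 uM DTT. ADP formation read by ADP-Glo luminescence; IC50 (nM) versus solvent control, triplicate.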

In another assay the target is LRRK2 (Homo sapiens, UniProt Q5S007). Briefly: LRRK2 enzyme inhibition, ADP-Glo kinase assay. Further details: purchased Invitrogen PR8604B. Here is the method:
In order to evaluate the inhibitory activity of the compounds according to the present invention on LRRK2, LRRK2 (G2019S), DYRK1, CLK1 and TTK kinases, the following experiment was performed.
Example compounds were reacted with the purified human LRRK2 (Invitrogen #PR8604B) enzyme to evaluate the enzyme inhibitory ability as follows. The reaction buffer was used as the composition of 40 mM Tris-HCl pH7.4, 20 mM MgCl2, 0.5 mg/ml BSA and 50 μM DTT, and the reaction of all test materials was performed on the reaction buffer. The compound was diluted with 10 mM DMSO stock in 12 steps by a serial dilution method, and the enzyme activity was measured at the final compound concentrations of 50, 10, 2, 0.4, 0.08, 0.016, 0.0032, 0.00064, 0.000128, 0.0000256, 0.00000512 and 0.000001024 μM. In the test, the human LRRK2 (25 ng) enzyme was reacted with the purified ATP (10 μM) and an enzyme substrate ([…]) at 25° C. for 2 hours, and then the enzyme activity was identified using the in vitro ADP-Glo™ kinase assay (promega). The enzyme activity reaction liquid, an ADP-Glo reaction liquid and an enzyme potency detection solution were reacted in a ratio of 2:2:1, and the degree of inhibition of enzyme activity was measured by Luminescence. The degree of inhibition of enzyme activity according to the treatment concentrations of the respective compounds was calculated based on the fluorescence of the enzyme activity of a solvent control group that was not treated with the compound, where the concentration of each compound to inhibit enzyme activity inhibition by 50% was determined as an IC50 (nM) value and obtained using Prism (Version 5.01, GraphPad) software.
In the table below, the following designations were used for the evaluation of enzyme inhibitory ability.

Another assay addresses T2, human GST-CLK1 (129-end) (Homo sapiens, UniProt P49759).
T2 construct: purified human GST-CLK1 (129-end, Signalchem) enzyme; GST; purchased Signalchem
Briefly: GST-CLK1 enzyme inhibition, ADP-Glo kinase assay. The note with it: ATP 10 uM. Put shortly:
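GST-CLK1 (129-end, 3 ng) reacted with 10 uM ATP and substrate in 40 mM Tris-HCl pH 7.4, 20 mM MgCl2, 0.5 mg/mL BSA, 50 uM DTT, 1 h at 25° C. ADP-Glo luminescence normalised to solvent control; IC50 from triplicate data.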

T2 sequence (P49759 129-484 limits assumed): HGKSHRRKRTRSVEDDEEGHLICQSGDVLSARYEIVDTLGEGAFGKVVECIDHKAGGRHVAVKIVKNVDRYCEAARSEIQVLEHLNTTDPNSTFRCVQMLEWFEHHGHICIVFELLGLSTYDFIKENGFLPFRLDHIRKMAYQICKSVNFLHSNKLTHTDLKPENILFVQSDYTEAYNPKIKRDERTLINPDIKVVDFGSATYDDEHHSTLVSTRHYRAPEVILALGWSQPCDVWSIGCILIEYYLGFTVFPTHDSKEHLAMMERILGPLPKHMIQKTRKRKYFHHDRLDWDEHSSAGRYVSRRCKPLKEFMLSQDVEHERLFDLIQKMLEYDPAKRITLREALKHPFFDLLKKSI
Sequence of LRRK2 (G2019S) (Q5S007 970-2527 G2019S limits assumed): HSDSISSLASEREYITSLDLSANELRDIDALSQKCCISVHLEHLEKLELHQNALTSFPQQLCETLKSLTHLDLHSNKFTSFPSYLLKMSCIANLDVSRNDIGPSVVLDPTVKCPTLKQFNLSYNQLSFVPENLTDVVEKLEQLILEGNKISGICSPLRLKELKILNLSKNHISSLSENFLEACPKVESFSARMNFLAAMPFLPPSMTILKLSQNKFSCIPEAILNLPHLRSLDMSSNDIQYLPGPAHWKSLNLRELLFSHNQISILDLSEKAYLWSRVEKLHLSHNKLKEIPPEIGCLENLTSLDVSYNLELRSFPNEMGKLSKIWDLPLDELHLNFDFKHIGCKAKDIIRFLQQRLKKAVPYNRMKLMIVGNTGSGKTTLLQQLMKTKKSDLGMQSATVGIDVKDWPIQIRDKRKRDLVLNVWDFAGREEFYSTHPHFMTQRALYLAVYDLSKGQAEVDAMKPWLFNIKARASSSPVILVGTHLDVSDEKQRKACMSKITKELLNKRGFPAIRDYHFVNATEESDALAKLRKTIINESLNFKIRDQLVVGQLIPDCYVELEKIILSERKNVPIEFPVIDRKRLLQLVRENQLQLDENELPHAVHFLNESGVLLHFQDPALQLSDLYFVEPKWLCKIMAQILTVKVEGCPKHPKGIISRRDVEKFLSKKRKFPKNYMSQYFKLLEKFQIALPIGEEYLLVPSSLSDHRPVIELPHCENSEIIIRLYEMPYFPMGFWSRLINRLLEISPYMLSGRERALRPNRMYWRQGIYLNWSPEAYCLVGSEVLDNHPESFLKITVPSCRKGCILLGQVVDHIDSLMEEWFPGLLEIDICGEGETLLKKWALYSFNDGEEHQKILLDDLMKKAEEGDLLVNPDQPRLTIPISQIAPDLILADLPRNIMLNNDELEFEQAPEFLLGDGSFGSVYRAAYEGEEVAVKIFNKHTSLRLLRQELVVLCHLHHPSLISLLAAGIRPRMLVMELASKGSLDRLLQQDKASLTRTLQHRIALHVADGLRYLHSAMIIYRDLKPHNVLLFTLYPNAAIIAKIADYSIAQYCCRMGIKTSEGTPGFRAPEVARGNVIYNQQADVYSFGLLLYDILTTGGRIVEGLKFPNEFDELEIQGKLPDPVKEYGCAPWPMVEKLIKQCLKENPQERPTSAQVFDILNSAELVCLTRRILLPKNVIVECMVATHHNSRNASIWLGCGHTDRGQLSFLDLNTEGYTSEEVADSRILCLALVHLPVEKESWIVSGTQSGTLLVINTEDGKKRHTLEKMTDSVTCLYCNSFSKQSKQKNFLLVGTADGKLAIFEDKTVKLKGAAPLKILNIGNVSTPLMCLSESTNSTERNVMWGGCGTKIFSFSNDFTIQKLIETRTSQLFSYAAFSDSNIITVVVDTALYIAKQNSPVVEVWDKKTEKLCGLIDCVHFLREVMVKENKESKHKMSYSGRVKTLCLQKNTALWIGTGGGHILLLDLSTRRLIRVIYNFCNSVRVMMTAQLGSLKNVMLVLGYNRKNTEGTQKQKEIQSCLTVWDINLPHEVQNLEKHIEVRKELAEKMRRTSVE
Sequence of LRRK2 (Q5S007 970-2527 limits assumed): as the sequence (Q5S007 970-2527 G2019S limits assumed) above, with S1050G counted along it

In the case of `COc1cc(S(C)(=O)=O)ccc1Nc1cc(NC(C)C)c2cc[nH]c2n1` [Example 28, N^4-isopropyl-N^6-(2-methoxy-4-(methylsulfonyl)phenyl)-1H-pyrrolo[2,3-b]pyridine-4,6-diamine], the IC50 against LRRK2 (G2019S) is 0.301 to 1 µM; in assay [1], 0.301 to 1 µM; against LRRK2, 0.101 to 0.3 µM; against human GST-CLK1 (129-end) it was 0.301 to 1 µM.
In the case of `COc1cc(S(C)(=O)=O)ccc1Nc1cc(NCC(C)C)c2cc[nH]c2n1` [Example 29, N^4-isobutyl-N^6-(2-methoxy-4-(methylsulfonyl)phenyl)-1H-pyrrolo[2,3-b]pyridine-4,6-diamine], the IC50 against LRRK2 (G2019S) is 0.101 to 0.3 µM; in assay [1], 0.301 to 1 µM; against LRRK2 it was below 0.1 µM; against human GST-CLK1 (129-end), 0.301 to 1 µM.
Regarding `CCNc1cc(Nc2ccc(P(C)(=O)O)cc2OC)nc2[nH]ccc12` [Example 32, (4-((4-(ethylamino)-1H-pyrrolo[2,3-b]pyridin-6-yl)amino)-3-methoxyphenyl) (methyl)phosphinic acid], the half-inhibitory concentration (IC50) (against LRRK2 (G2019S); in assay [1]; against LRRK2; on human GST-CLK1 (129-end)) was 0.301 to 1 µM in each case.
On to `CNc1cc(Nc2ccc(C(=O)N3CCOCC3)c3c2OCC3)nc2[nH]cc(C(F)(F)F)c12` [Example 52, (7-((4-(methylamino)-3-(trifluoromethyl)-1H-pyrrolo[2,3-b]pyridin-6-yl)amino)-2,3-dihydrobenzofuran-4-yl)(morpholino) methanone], for which the IC50 (against LRRK2 (G2019S); in assay [1]; on LRRK2; on human GST-CLK1 (129-end)) was below 0.1 µM throughout.
On to `O=C(c1ccc(Nc2cc(NC3CC3)c3c(C(F)(F)F)c[nH]c3n2)c2c1CCO2)N1CCOCC1` [Example 53, (7-((4-(cyclopropylamino)-3-(trifluoromethyl)-1H-pyrrolo[2,3-b]pyridin-6-yl)amino)-2,3-dihydrobenzofuran-4-yl)(morpholino) methanone], for which the IC50 (against LRRK2 (G2019S); in assay [1]; at LRRK2; on human GST-CLK1 (129-end)) was below 0.1 µM each time.
With `COCCNc1cc(Nc2ccc(C(=O)N3CCOCC3)c3c2OCCO3)nc2[nH]cc(Cl)c12` [Example 62, (8-((3-chloro-4-((2-methoxyethyl)amino)-1H-pyrrolo[2,3-b]pyridin-6-yl)amino)-2,3-dihydrobenzo[b] [1,4]dioxin-5-yl)(morpholino) methanone], the IC50 is below 0.1 µM on LRRK2 (G2019S), 0.301 to 1 µM in assay [1], below 0.1 µM at LRRK2 and 0.301 to 1 µM against human GST-CLK1 (129-end).
As for `CNc1cc(Nc2ccc(S(=O)(=O)N3CCOCC3)cc2OC)nc2[nH]cc(Cl)c12` [Example 64, 3-chloro-N^6-(2-methoxy-4-(morpholinosulfonyl)phenyl)-N^4-methyl-1H-pyrrolo[2,3-b]pyridine-4,6-diamine], the IC50 (on LRRK2 (G2019S); in assay [1]; against LRRK2; against human GST-CLK1 (129-end)) was 0.301 to 1 µM each time.
For `CCNc1cc(Nc2ccc(S(=O)(=O)N3CCOCC3)cc2OC)nc2[nH]cc(Cl)c12` [Example 65, 3-chloro-N^4-ethyl-N^6-(2-methoxy-4-(morpholinosulfonyl)phenyl)-1H-pyrrolo[2,3-b]pyridine-4,6-diamine], the IC50 was in the range of 0.301 to 1 µM against LRRK2 (G2019S), 0.301 to 1 µM in assay [1], 0.101 to 0.3 µM against LRRK2 and 0.301 to 1 µM on human GST-CLK1 (129-end).
Regarding `COc1cc(S(=O)(=O)N2CCOCC2)ccc1Nc1cc(NC2CCC2)c2c(Cl)c[nH]c2n1` [Example 69, 3-chloro-N^4-cyclobutyl-N^6-(2-methoxy-4-(morpholinosulfonyl)phenyl)-1H-pyrrolo[2,3-b]pyridine-4,6-diamine], the IC50 (against LRRK2 (G2019S); in assay [1]; on LRRK2; on human GST-CLK1 (129-end)) was 0.301 to 1 µM in each case.
`COc1cc(S(=O)(=O)N2CCOCC2)ccc1Nc1cc(NC2CCCCC2)c2c(Cl)c[nH]c2n1` [Example 70, 3-chloro-N^4-cyclohexyl-N^6-(2-methoxy-4-(morpholinosulfonyl)phenyl)-1H-pyrrolo[2,3-b]pyridine-4,6-diamine]: the IC50 (against LRRK2 (G2019S); in assay [1]; at LRRK2; against human GST-CLK1 (129-end)) was 0.301 to 1 µM in each case.
`COc1cc(S(C)(=O)=O)ccc1Nc1cc(NC2CCC2)c2c(Cl)c[nH]c2n1` [Example 85, 3-chloro-N^4-cyclobutyl-N^6-(2-methoxy-4-(methylsulfonyl)phenyl)-1H-pyrrolo[2,3-b]pyridine-4,6-diamine]: the IC50 was 0.301 to 1 µM against LRRK2 (G2019S), 0.101 to 0.3 µM in assay [1], 0.301 to 1 µM against LRRK2 and 0.301 to 1 µM against human GST-CLK1 (129-end).
Consider `CCNc1cc(Nc2ccc(C(=O)N3CCOCC3)c3c2OCC3)nc2[nH]cc(C(F)(F)F)c12` [Example 89, (7-((4-(ethylamino)-3-(trifluoromethyl)-1H-pyrrolo[2,3-b]pyridin-6-yl)amino)-2,3-dihydrobenzofuran-4-yl)(morpholino) methanone], for which the IC50 (against LRRK2 (G2019S); in assay [1]; against LRRK2; against human GST-CLK1 (129-end)) was below 0.1 µM throughout.
For the molecule `CNc1cc(Nc2ccc(C(=O)N3CCOCC3)c3c2OCCO3)nc2[nH]cc(C#N)c12` [Example 106, 4-(methylamino)-6-((8-(morpholine-4-carbonyl)-2,3-dihydrobenzo[b] [1,4]dioxin-5-yl)amino)-1H-pyrrolo[2,3-b]pyridine-3-carbonitrile], the IC50 on LRRK2 (G2019S) is below 0.1 µM; in assay [1] it was 0.301 to 1 µM; at LRRK2, below 0.1 µM; on human GST-CLK1 (129-end), 0.301 to 1 µM.
As for `CCNc1cc(Nc2ccc(C(=O)N3CCOCC3)c3c2OCCO3)nc2[nH]cc(C#N)c12` [Example 107, 4-(ethylamino)-6-((8-(morpholine-4-carbonyl)-2,3-dihydrobenzo[b] [1,4]dioxin-5-yl)amino)-1H-pyrrolo[2,3-b]pyridine-3-carbonitrile], the IC50 on LRRK2 (G2019S) is below 0.1 µM; in assay [1], 0.301 to 1 µM; on LRRK2 it was below 0.1 µM; on human GST-CLK1 (129-end), 0.301 to 1 µM.
Take `CCCNc1cc(Nc2ccc(C(=O)N3CCOCC3)c3c2OCCO3)nc2[nH]cc(C#N)c12` [Example 108, 6-((8-(morpholine-4-carbonyl)-2,3-dihydrobenzo[b] [1,4]dioxin-5-yl)amino)-4-(propylamino)-1H-pyrrolo[2,3-b]pyridine-3-carbonitrile]: the IC50 on LRRK2 (G2019S) was below 0.1 µM; in assay [1] it was 0.301 to 1 µM; against LRRK2, below 0.1 µM; on human GST-CLK1 (129-end) it was 0.301 to 1 µM.
Turning to `COCCNc1cc(Nc2ccc(C(=O)N3CCOCC3)c3c2OCCO3)nc2[nH]cc(C#N)c12` [Example 109, 4-((2-methoxyethyl)amino)-6-((8-(morpholine-4-carbonyl)-2,3-dihydrobenzo[b] [1,4]dioxin-5-yl)amino)-1H-pyrrolo[2,3-b]pyridine-3-carbonitrile], the IC50 (against LRRK2 (G2019S); in assay [1]; on LRRK2; against human GST-CLK1 (129-end)) was below 0.1 µM throughout.
Consider `CS(=O)(=O)CCNc1cc(Nc2ccc(C(=O)N3CCOCC3)c3c2OCCO3)nc2[nH]cc(C#N)c12` [Example 110, 4-((2-(methylsulfonyl)ethyl)amino)-6-((8-(morpholine-4-carbonyl)-2,3-dihydrobenzo[b] [1,4]dioxin-5-yl)amino)-1H-pyrrolo[2,3-b]pyridine-3-carbonitrile], for which the IC50 at LRRK2 (G2019S) is below 0.1 µM; in assay [1] it was 0.301 to 1 µM; at LRRK2, below 0.1 µM; at human GST-CLK1 (129-end), 0.101 to 0.3 µM.
